Assay results: publication PMC8286840, “Identifying SARS-CoV-2 antiviral compounds by screening for small molecule inhibitors of Nsp3 papain-like protease” (Biochemical Journal, 2021)
Structures can show the parent of a compound that is named as a salt. Where two headings read alike, the source gives them in different places.

Tests used:
[1] = target: T1, SARS-CoV-2 PLpro (nsp3 1564–1878) (Severe acute respiratory syndrome coronavirus 2, UniProt P0DTD1); test: biochemical; parameters: FRET-quenched peptide (Pro3) cleavage by PLpro, 10 min pre-incubation, slope over 20 min, normalised to no-compound control; details: high concentration screen, read-out: % of control remaining
[2] = target: T1, SARS-CoV-2 PLpro (nsp3 1564–1878); test: biochemical; parameters: FRET-quenched peptide (Pro3) cleavage by PLpro, 10 min pre-incubation, slope over 20 min, normalised to no-compound control; details: low concentration screen, read-out: % of control remaining

## CC[N+](CC)(CC)CCOc1cccc(OCC[N+](CC)(CC)CC)c1OCC[N+](CC)(CC)CC [Gallamine triethiodide]
[1]; Well no.=717
  remaining activity at 3.75 µM: 87.8%
[1]; Well no.=6753
  remaining activity at 3.75 µM: 103%
[2]; Well no.=717
  remaining activity at 1.25 µM: 91.1%
[2]; Well no.=6753
  remaining activity at 1.25 µM: 105%

## CC(C)=CCC[C@]1(C)C=Cc2c(O)c3c(c(CC=C(C)C)c2O1)O[C@]12C(=C[C@@H]4C[C@H]1C(C)(C)O[C@@]2(C/C=C(/C)C(=O)O)C4=O)C3=O [Gambogic Acid]
[1]; Well no.=3723
  remaining activity at 3.75 µM: 97.8%
[1]; Well no.=6926
  remaining activity at 3.75 µM: 91.9%
[2]; Well no.=3723
  remaining activity at 1.25 µM: 94.4%
[2]; Well no.=6926
  remaining activity at 1.25 µM: 96.6%

## CC(=O)[C@H]1CC[C@H]2[C@@H]3CC[C@H]4C[C@](C)(O)CC[C@]4(C)[C@H]3CC[C@]12C [Ganaxolone]
[1]; Well no.=5901
  remaining activity at 3.75 µM: 94%
[2]; Well no.=5901
  remaining activity at 1.25 µM: 96.3%

## Nc1nc2c(ncn2COC(CO)CO)c(=O)[nH]1 [Ganciclovir]
[1]; Well no.=667
  remaining activity at 3.75 µM: 97.3%
[1]; Well no.=2168
  remaining activity at 3.75 µM: 99.3%
[1]; Well no.=8062
  remaining activity at 3.75 µM: 97.7%
[2]; Well no.=667
  remaining activity at 1.25 µM: 99.1%
[2]; Well no.=2168
  remaining activity at 1.25 µM: 97.3%
[2]; Well no.=8062
  remaining activity at 1.25 µM: 97.2%

## CC(C)c1cc(-c2n[nH]c(=O)n2-c2ccc3c(ccn3C)c2)c(O)cc1O [Ganetespib (STA-9090)]
[1]; Well no.=9028
  remaining activity at 3.75 µM: 86.1%
[2]; Well no.=9028
  remaining activity at 1.25 µM: 85.9%

## CCNCc1nc2c(N)nc3ccccc3c2n1CC(C)(C)O [Gardiquimod trifluoroacetate]
[1]; Well no.=8131
  remaining activity at 3.75 µM: 103%
[2]; Well no.=8131
  remaining activity at 1.25 µM: 105%

## COc1c(N2CCNC(C)C2)c(F)cc2c(=O)c(C(=O)O)cn(C3CC3)c12 (stereo not drawn) [Gatifloxacin]
[1]; Well no.=2170
  remaining activity at 3.75 µM: 104%
[2]; Well no.=2170
  remaining activity at 1.25 µM: 103%

## COc1cc2ncnc(Nc3ccc(F)c(Cl)c3)c2cc1OCCCN1CCOCC1 [Gefitinib]
[1]; Well no.=1579
  remaining activity at 3.75 µM: 102%
[1]; Well no.=2743
  remaining activity at 3.75 µM: 101%
[2]; Well no.=1579
  remaining activity at 1.25 µM: 102%
[2]; Well no.=2743
  remaining activity at 1.25 µM: 101%

## COC1=C2C[C@@H](C)C[C@H](OC)[C@H](O)[C@@H](C)/C=C(\C)[C@H](OC(N)=O)[C@@H](OC)/C=C\C=C(/C)C(=O)NC(=CC1=O)C2=O [Geldanamycin]
[1]; Well no.=5019
  remaining activity at 3.75 µM: 101%
[2]; Well no.=5019
  remaining activity at 1.25 µM: 98.5%

## Nc1ccn([C@@H]2O[C@H](CO)[C@@H](O)C2(F)F)c(=O)n1 [Gemcitabine (hydrochloride)]
[1]; Well no.=8056
  remaining activity at 3.75 µM: 100%
[2]; Well no.=8056
  remaining activity at 1.25 µM: 96.9%

## Nc1ccn([C@@H]2O[C@H](CO)[C@@H](O)C2(F)F)c(=O)n1 [Gemcitabine HCl (Gemzar)]
[1]; Well no.=5059
  remaining activity at 3.75 µM: 107%
[2]; Well no.=5059
  remaining activity at 1.25 µM: 104%

## Nc1ccn([C@@H]2O[C@H](CO)[C@@H](O)C2(F)F)c(=O)n1 [Gemcitabine]
[1]; Well no.=1906
  remaining activity at 3.75 µM: 98.5%
[1]; Well no.=8054
  remaining activity at 3.75 µM: 95%
[2]; Well no.=1906
  remaining activity at 1.25 µM: 97.8%
[2]; Well no.=8054
  remaining activity at 1.25 µM: 92.7%

## Cc1ccc(C)c(OCCCC(C)(C)C(=O)O)c1 [Gemfibrozil]
[1]; Well no.=2174
  remaining activity at 3.75 µM: 98.7%
[2]; Well no.=2174
  remaining activity at 1.25 µM: 95.4%

## COC(=O)C1=CO[C@@H](O)[C@@H]2C(CO)=CC[C@H]12 [Genipin]
[1]; Well no.=5276
  remaining activity at 3.75 µM: 89.2%
[2]; Well no.=5276
  remaining activity at 1.25 µM: 95.9%

## COC(=O)C1=CO[C@@H](O[C@@H]2O[C@H](CO)[C@@H](O)[C@H](O)[C@H]2O)[C@@H]2C(CO)=CC[C@H]12 [Geniposide]
[1]; Well no.=5206
  remaining activity at 3.75 µM: 97.9%
[2]; Well no.=5206
  remaining activity at 1.25 µM: 102%

## O=C(O)C1=CO[C@@H](O[C@@H]2O[C@H](CO)[C@@H](O)[C@H](O)[C@H]2O)[C@@H]2C(CO)=CC[C@H]12 [Geniposidic acid]
[1]; Well no.=5236
  remaining activity at 3.75 µM: 95.9%
[2]; Well no.=5236
  remaining activity at 1.25 µM: 95.4%

## O=c1c(-c2ccc(O)cc2)coc2cc(O)cc(O)c12 [Genistein - 5,7-Dihydroxy-3-(4-hydroxyphenyl)-4H-1-benzopyran-4-one]
[1]; Well no.=2342
  remaining activity at 3.75 µM: 95.4%
[2]; Well no.=2342
  remaining activity at 1.25 µM: 95.4%

## O=c1c(-c2ccc(O)cc2)coc2cc(O)cc(O)c12 [Genistein]
[1]; Well no.=573
  remaining activity at 3.75 µM: 94%
[1]; Well no.=3315
  remaining activity at 3.75 µM: 101%
[1]; Well no.=3947
  remaining activity at 3.75 µM: 98.5%
[1]; Well no.=6492
  remaining activity at 3.75 µM: 103%
[2]; Well no.=573
  remaining activity at 1.25 µM: 95%
[2]; Well no.=3315
  remaining activity at 1.25 µM: 94.8%
[2]; Well no.=3947
  remaining activity at 1.25 µM: 98.6%
[2]; Well no.=6492
  remaining activity at 1.25 µM: 103%

## O=c1c(-c2ccc(O)cc2)coc2cc(O[C@@H]3O[C@H](CO)[C@@H](O)[C@H](O)[C@H]3O)cc(O)c12 [Genistin]
[1]; Well no.=3213
  remaining activity at 3.75 µM: 97.9%
[2]; Well no.=3213
  remaining activity at 1.25 µM: 99.7%

## O=C(O)c1cc(O)ccc1O [Gentisic acid]
[1]; Well no.=3955
  remaining activity at 3.75 µM: 100%
[2]; Well no.=3955
  remaining activity at 1.25 µM: 110%

## COc1cc(-c2oc3cc(O)ccc3c(=O)c2O)ccc1O [Geraldol]
[1]; Well no.=3512
  remaining activity at 3.75 µM: 102%
[2]; Well no.=3512
  remaining activity at 1.25 µM: 98.4%

## CC(=O)CC/C=C(\C)CC/C=C(\C)CC/C=C(\C)CCC=C(C)C [Geranylgeranylacetone]
[1]; Well no.=6123
  remaining activity at 3.75 µM: 95.3%
[2]; Well no.=6123
  remaining activity at 1.25 µM: 96.8%

## C#C[C@]1(O)C=C[C@H]2[C@@H]3CCC4=CC(=O)CC[C@@H]4[C@H]3CC[C@@]21CC [Gestodene]
[1]; Well no.=5260
  remaining activity at 3.75 µM: 96.8%
[2]; Well no.=5260
  remaining activity at 1.25 µM: 93.5%

## C#C[C@]1(O)CC[C@H]2[C@@H]3CCC4=CC(=O)CCC4=C3C=C[C@@]21CC [Gestrinone]
[1]; Well no.=1792
  remaining activity at 3.75 µM: 99.3%
[2]; Well no.=1792
  remaining activity at 1.25 µM: 101%

## Oc1cc(O)c(Cl)cn1 [Gimeracil]
[1]; Well no.=5056
  remaining activity at 3.75 µM: 104%
[2]; Well no.=5056
  remaining activity at 1.25 µM: 101%

## CCCCC[C@H](O)CC(=O)CCc1ccc(O)c(OC)c1 [Gingerol]
[1]; Well no.=3319
  remaining activity at 3.75 µM: 101%
[2]; Well no.=3319
  remaining activity at 1.25 µM: 97%

## C[C@@H]1C(=O)O[C@H]2C[C@@]34[C@H]5C[C@@H](C(C)(C)C)[C@]36[C@@H](OC(=O)[C@@H]6O)O[C@@]4(C(=O)O5)[C@]21O [Ginkgolide A]
[1]; Well no.=1908
  remaining activity at 3.75 µM: 96.1%
[1]; Well no.=3613
  remaining activity at 3.75 µM: 104%
[2]; Well no.=1908
  remaining activity at 1.25 µM: 98.7%
[2]; Well no.=3613
  remaining activity at 1.25 µM: 106%

## C[C@@H]1C(=O)O[C@H]2[C@H](O)[C@@]34[C@H]5C[C@@H](C(C)(C)C)[C@]36[C@@H](OC(=O)[C@@H]6O)O[C@@]4(C(=O)O5)[C@@]12O [Ginkgolide B]
[1]; Well no.=3321
  remaining activity at 3.75 µM: 101%
[1]; Well no.=6484
  remaining activity at 3.75 µM: 92.7%
[2]; Well no.=3321
  remaining activity at 1.25 µM: 97.9%
[2]; Well no.=6484
  remaining activity at 1.25 µM: 95.6%
